In PubChem BioAssay AID1919004 (Molecular Pharmacology Branch, DTP, NCI, 2023):

Test system: 883617-216-R-J1-PDC complex spheroids, growth, % test/control
Assay: Anticancer human tumor 883617-216-R-J1-PDC patient-derived bladder carcinoma cell line growth inhibition [AhR]
Conditions: for IC50: curve of first compound; for viability, T/C: stronger effect = lower value
Method in brief: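 Spheroids combined tumor cells with HUVEC endothelial cells and human MSCs as stroma. AhR antagonists were paired with standard or investigational drugs, each dosed in half-log steps down from near clinical Cmax, or from 10 microM where Cmax was unknown.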

[1] = second compound 0.1 µM, first compound 0.0316 µM
[2] = second compound 0.1 µM, first compound 0.1 µM
[3] = second compound 0.1 µM, first compound 0.316 µM
[4] = second compound 0.1 µM, first compound 1 µM
[5] = second compound 0.1 µM, first compound 3.16 µM
[6] = second compound 0.1 µM, first compound 10 µM
[7] = second compound 0.316 µM, first compound 0.0316 µM
[8] = second compound 0.316 µM, first compound 0.1 µM
[9] = second compound 0.316 µM, first compound 0.316 µM
[10] = second compound 0.316 µM, first compound 1 µM
[11] = second compound 0.316 µM, first compound 3.16 µM
[12] = second compound 0.316 µM, first compound 10 µM
[13] = second compound 1 µM, first compound 0.0316 µM
[14] = second compound 1 µM, first compound 0.1 µM
[15] = second compound 1 µM, first compound 0.316 µM
[16] = second compound 1 µM, first compound 1 µM
[17] = second compound 1 µM, first compound 3.16 µM
[18] = second compound 1 µM, first compound 10 µM
[19] = second compound 3.16 µM, first compound 0.0316 µM
[20] = second compound 3.16 µM, first compound 0.1 µM
[21] = second compound 3.16 µM, first compound 0.316 µM
[22] = second compound 3.16 µM, first compound 1 µM
[23] = second compound 3.16 µM, first compound 3.16 µM
[24] = second compound 3.16 µM, first compound 10 µM
[25] = second compound 10 µM, first compound 0.0316 µM
[26] = second compound 10 µM, first compound 0.1 µM
[27] = second compound 10 µM, first compound 0.316 µM
[28] = second compound 10 µM, first compound 1 µM
[29] = second compound 10 µM, first compound 3.16 µM
[30] = second compound 10 µM, first compound 10 µM
[31] = second compound 0.1 µM, first compound 0.00316 µM
[32] = second compound 0.1 µM, first compound 0.01 µM
[33] = second compound 0.316 µM, first compound 0.00316 µM
[34] = second compound 0.316 µM, first compound 0.01 µM
[35] = second compound 1 µM, first compound 0.00316 µM
[36] = second compound 1 µM, first compound 0.01 µM
[37] = second compound 3.16 µM, first compound 0.00316 µM
[38] = second compound 3.16 µM, first compound 0.01 µM
[39] = second compound 10 µM, first compound 0.00316 µM
[40] = second compound 10 µM, first compound 0.01 µM
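Further: exposure lasted 7 days after dosing on day 3 of spheroid growth.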

SMILES	IC50 (second compound 0.1 µM)	IC50 (second compound 0.316 µM)	IC50 (second compound 1 µM)	IC50 (second compound 3.16 µM)	IC50 (second compound 10 µM)	viability, T/C [1]	viability, T/C [2]	viability, T/C [3]	viability, T/C [4]	viability, T/C [7]	viability, T/C [8]	viability, T/C [9]	viability, T/C [10]	viability, T/C [13]	viability, T/C [14]	viability, T/C [15]	viability, T/C [19]	viability, T/C [20]	viability, T/C [25]	viability, T/C [26]	also measured
CC(C)c1c(-c2ccccc2)nc2c(C#N)c[nH]n2c1=O + CC(CO)NC(=O)c1cc(-c2ccc(Cl)cc2)nn(-c2cnn(C)c2)c1=O	> 10000 nM	> 10000 nM	> 10000 nM	> 10000 nM	> 10000 nM	77.3%	71.2%	66.1%	70.4%	94.8%	85.2%	65.7%	74%	59.7%	97.8%	103%	95.2%	92.5%	79.4%	87.1%	viability, T/C [5]: 84.5%; viability, T/C [6]: 96%; viability, T/C [11]: 91.4%; viability, T/C [12]: 75.6%; viability, T/C [16]: 92.6%; viability, T/C [17]: 87.1%; viability, T/C [18]: 78.3%; viability, T/C [21]: 75.2%; viability, T/C [22]: 79.3%; viability, T/C [23]: 51%; viability, T/C [24]: 57.7%; viability, T/C [27]: 106%; viability, T/C [28]: 57.8%; viability, T/C [29]: 64%; viability, T/C [30]: 62.5%
COc1ccc([C@@H](O)c2cc(-c3ncnc4cc(N5CCOCC5)ccc34)c(F)cc2Cl)nn1 + CC(CO)NC(=O)c1cc(-c2ccc(Cl)cc2)nn(-c2cnn(C)c2)c1=O	9070 nM	8400 nM	10000 nM	10000 nM	3520 nM	83%	94.7%	76.8%	75.9%	69.9%	128%	83.1%	63.9%	86.4%	99.7%	55.9%	64.8%	135%	119%	81.7%	viability, T/C [5]: 60.1%; viability, T/C [6]: 49.1%; viability, T/C [11]: 124%; viability, T/C [12]: 42.2%; viability, T/C [16]: 58.9%; viability, T/C [17]: 61.4%; viability, T/C [18]: 42.1%; viability, T/C [21]: 73.6%; viability, T/C [22]: 61.7%; viability, T/C [23]: 37.1%; viability, T/C [24]: 51.6%; viability, T/C [27]: 88.7%; viability, T/C [28]: 73.4%; viability, T/C [29]: 51.1%; viability, T/C [30]: 32.4%
CC[C@@]1(O)C(=O)OCc2c1cc1n(c2=O)Cc2cc3c(CN(C)C)c(O)ccc3nc2-1 + Cc1ccccc1N=Nc1ccc(NC(=O)c2ccnn2C)c(C)c1	> 100 nM	> 100 nM	> 100 nM	> 100 nM	> 100 nM	76.9%	71.1%	–	–	70%	62%	–	–	66%	69.6%	–	70.7%	71.3%	75.6%	73%	viability, T/C (second compound 0.1 µM, first compound 0.000316 µM): 90.7%; viability, T/C (second compound 0.1 µM, first compound 0.001 µM): 85%; viability, T/C [31]: 86.3%; viability, T/C [32]: 80.3%; viability, T/C (second compound 0.316 µM, first compound 0.000316 µM): 86.8%; viability, T/C (second compound 0.316 µM, first compound 0.001 µM): 86.6%; viability, T/C [33]: 76.2%; viability, T/C [34]: 73%; viability, T/C (second compound 1 µM, first compound 0.000316 µM): 82.5%; viability, T/C (second compound 1 µM, first compound 0.001 µM): 80.3%; viability, T/C [35]: 79.4%; viability, T/C [36]: 71.4%; viability, T/C (second compound 3.16 µM, first compound 0.000316 µM): 70%; viability, T/C (second compound 3.16 µM, first compound 0.001 µM): 79.1%; viability, T/C [37]: 78.6%; viability, T/C [38]: 74.7%; viability, T/C (second compound 10 µM, first compound 0.000316 µM): 74.2%; viability, T/C (second compound 10 µM, first compound 0.001 µM): 80.7%; viability, T/C [39]: 78%; viability, T/C [40]: 70.9%
COc1cc(C2c3cc4c(cc3C(OC3OC5COC(C)OC5C(O)C3O)C3COC(=O)C23)OCO4)cc(OC)c1O (stereo not given) + Cc1ccccc1N=Nc1ccc(NC(=O)c2ccnn2C)c(C)c1	> 10000 nM	> 10000 nM	> 10000 nM	> 10000 nM	> 10000 nM	86.4%	83.5%	69.7%	68%	80.8%	86.7%	77.3%	69%	80.7%	82%	75.7%	73%	72.7%	67.8%	77.5%	viability, T/C [5]: 69.5%; viability, T/C [6]: 57.4%; viability, T/C [11]: 70.2%; viability, T/C [12]: 57.6%; viability, T/C [16]: 64.6%; viability, T/C [17]: 72.1%; viability, T/C [18]: 54.2%; viability, T/C [21]: 71.1%; viability, T/C [22]: 61.2%; viability, T/C [23]: 70.9%; viability, T/C [24]: 56.4%; viability, T/C [27]: 73.2%; viability, T/C [28]: 65.6%; viability, T/C [29]: 63.5%; viability, T/C [30]: 57.1%
COc1cccc2c1C(=O)c1c(O)c3c(c(O)c1C2=O)CC(O)(C(=O)CO)CC3OC1CC(N)C(O)C(C)O1 (stereo not given) + Cc1ccccc1N=Nc1ccc(NC(=O)c2ccnn2C)c(C)c1	284 nM	255 nM	339 nM	258 nM	380 nM	66.5%	60.6%	48.4%	22.7%	67.5%	61.3%	47.5%	16.7%	56.8%	63.4%	51.5%	66.5%	56%	58.6%	57.3%	viability, T/C [5]: 0.11%; viability, T/C [6]: 0.14%; viability, T/C [11]: 0.12%; viability, T/C [12]: 0.15%; viability, T/C [16]: 16.5%; viability, T/C [17]: 0.12%; viability, T/C [18]: 0.65%; viability, T/C [21]: 48.7%; viability, T/C [22]: 11.9%; viability, T/C [23]: 0.12%; viability, T/C [24]: 0.5%; viability, T/C [27]: 57.8%; viability, T/C [28]: 8.97%; viability, T/C [29]: 0.18%; viability, T/C [30]: 0.21%
Nc1ncn(C2CC(O)C(CO)O2)c(=O)n1 (stereo not given) + Cc1ccccc1N=Nc1ccc(NC(=O)c2ccnn2C)c(C)c1	> 1000 nM	> 1000 nM	> 1000 nM	> 1000 nM	> 1000 nM	83.6%	82.8%	75.5%	73.1%	87.8%	80.1%	78.8%	76.6%	101%	77.9%	67.6%	75.8%	72.8%	74.3%	77.7%	viability, T/C [31]: 89.3%; viability, T/C [32]: 94.7%; viability, T/C [33]: 82.9%; viability, T/C [34]: 83.5%; viability, T/C [35]: 79.9%; viability, T/C [36]: 88.1%; viability, T/C [16]: 77.1%; viability, T/C [37]: 71.1%; viability, T/C [38]: 84.2%; viability, T/C [21]: 79.6%; viability, T/C [22]: 81.2%; viability, T/C [39]: 84.7%; viability, T/C [40]: 79.2%; viability, T/C [27]: 74.2%; viability, T/C [28]: 77.9%
